The structures appear in SMILES notation. Structures can show the parent of a compound that is named as a salt. Where two headings read alike, the source gives them in different places.

Data set [1] has as its system LoVo cancer cells. As to the kind of experiment: Cytotoxicity on LoVo cancer cells. Type of data set: cell-based. Conditions: LoVo colorectal adenocarcinoma cells. As for the experimental part: (§1) The cells were grown on their respective propagation medium and seeded 24 hours before the compounds are added. The cells were trypsinized, and 50,000 cells/well and 10,000 cells/well were seeded in order to read the plates at 48 hours and 144 hours after being treated by the compounds, respectively.
(§2) On the day of the treatment, the medium was replaced by 10 ml each of series dilution of the compounds, consisting of: control, which contained no compound of this invention; 1:100 dilution; 1:1,000 dilution; 1:2,000 dilution; and 1:5,000 dilution. The starting concentrations for these dilutions were: 50 mg/ml for compound A; 10 mg/ml for compound B; 25 mg/ml for compound C; and 5 mg/ml for compound D. The dilution was made using the growth medium.

Data set [2] deals with Poly ADP-Ribose Polymerase (PARP). As to the kind of experiment: PARP cleavage in treated U937 cells (western blot). Format: cell-based. The conditions noted are these: 24 hours. The procedure:
U937 cells were treated with various concentrations of hydroxyzine and promethazine for 24 hours. The proteins were isolated from these cells and loaded onto a gel for a western blot analysis. A specific anti-PARP antibody was used to visualize the location of PARP.
For orientation: A western blot detects proteins with antibodies after separation by electrophoresis.

In data set [3] the test system is blastic cells from AML patients. As to the kind of experiment: Inhibition of viability of fresh leukemic cells (trypan blue exclusion). Conditions: Homo sapiens, day 3; for cytotoxicity at 100 µM: 10^-4 M; for cytotoxicity at 10 µM: 10^-5 M. Type of data set: cell-based, human. The essentials:
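Blasts from AML samples 1 to 5 (least to most differentiated) were incubated with or without anti-histamine derivatives, with Polaramine as negative control. Viable counts by trypan blue exclusion at day 3, with Wright-Giemsa morphology. Values are % growth inhibition versus negative control.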

Data set [4] deals with K562, U937, Jurkat, T47-D, MCF7, BT20 and 184B5 cell lines. Kind of data set: Cytotoxicity in malignant and immortalized cell lines (manual counting, Alamar assay). Format: cell-based. The conditions noted are these: for cytotoxic activity: dilutions greater than 1:1,000, especially about 1:10,000; for cytotoxicity: dilutions of from 1:100 to 1:1,000, 48 and 144 hours after treatment. As for the experimental part: These four compounds were added at different concentrations to cultures of various malignant cell lines and normal cells. The cell lines used for these tests were the following:
All leukemic cell lines were grown and used in logarithmic phase. After one day of treatment, the cells were isolated, counted and diluted in a regular growth medium to provide the cell density of about 75×10^3 cells/ml for reading on plates at 48 hours after the treatment, and […] for reading at 144 hours after the treatment.
(§3) Several dilutions of each compound tested were added to the wells (12 wells per plate, TPP), and 1 ml of cells from the parent solution was added per well after a line had been completed. The dilutions were made using the culture medium, and following dilutions were tested: control, which contained no compound of this invention; 1:100; 1:1,000; 1:2,000; 1:5,000; and 1:10,000. The starting concentrations for these dilutions were: 50 mg/ml for compound A; 10 mg/ml for compound B; 25 mg/ml for compound C; and 5 mg/ml for compound D. The results were analyzed by manual counting and Alamar reduced assay.
as §1, §2
A tested compound is regarded as being active in cytotoxicity where the percentage of surviving cells after the treatment with the compound is less than 30%.

Data set [5] has as its system TCTP. Kind of data set: TCTP expression in treated U937 cells (western blot). Type of data set: cell-based. The conditions noted are these: 24 hours, various dilutions. The procedure: U937 cells were treated with various dilutions of hydroxyzine, brompheniramine and promethazine for 24 hours as denoted in FIG. 23A. Starting concentrations were: 50 mg/ml for […] (“A”); 10 mg/ml for brompheniramine (“B”); and 25 mg/ml for promethazine (“C”). The proteins were isolated from these cells and loaded onto a gel for western blot analysis. A specific anti-TCTP (anti-HRF) antibody was used to visualize the location of TCTP. […] The level of actin in equal loading of extract was visualized by antiactin antibody (Santa Cruz Biotechnology). No substantial difference between the level of actin in treated and untreated cells was observed.

Data set [6] concerns lymphocytes from healthy donors. As to the kind of experiment: Cytotoxicity on lymphocytes from healthy donors. The conditions noted are these: 48 hours after treatment, even at 1:1,000 dilution; three healthy donors. Format: cell-based, human. As for the experimental part:
as §3
The blood from healthy donors was collected on citrate and diluted 1:1 with 0.15M NaCl. The dilution (6 ml) was loaded onto 3 ml of lymphoprep® (Nycomed), and the mixture was centrifuged at 800 g for 30 minutes at room temperature. The white cells were isolated and washed with RPMI1640 and 10% FBS. The white cells were diluted to provide 450,000 cells/m in RPMI1640/10% FSB medium. The tests for the compounds of this invention were performed according to the same procedures described in Section 5.1.1.

Data set [7] relates to U937. Format: in vivo. The conditions noted are these: treatment from day 1, cells inoculated after more than 24 hours, daily administration. As for the experimental part:
The second protocol was designed to test the preventive effects of the compounds of this invention on tumorigenesis. In this protocol, the animals have been treated with various compounds of the present invention on day 1. After more than 24 hours, tumoral cells were inoculated. The administration of the compounds of this invention was maintained daily. The cell line used for this test was U937.

Data set [8] concerns MDA-MB-231 (breast cancer line). Kind of data set: Curative effects on palpable tumors, MDA-MB-231 cells in scid/scid mice. Format: in vivo. The conditions noted are these: 11.25 mg/kg or 22.5 mg/kg daily once tumors palpable. As for the experimental part:
In this series of experiments, effects of various compounds of the present invention on tumor development were tested using two protocols. The first protocol is directed to the testing of curative effects of these compounds in different cell lines. In this protocol, cancerous cells are inoculated to the animals, and the inoculated animals were left without any further treatment until the development of tumors. As soon as the tumors became palable (4 mm^3), the compounds of this invention were administered daily to the animals.

Data set [9] deals with U937 cells. As to the kind of experiment: Antineoplastic activity, U937 cells injected in scid/scid mice, treatment from day 1. Format: in vivo. The conditions noted are these: 11.25 mg/kg daily intraperitoneally; six mice. As for the experimental part: Ten million U937 cells were subcutaneously injected into scid/scid mice. One injection was carried out per each of the 6 mice tested per set. The excipient or the compounds tested were administered intraperitoneally on day 1, i.e., the day of U937 cell line inoculation, of the experiment. The excipients or compounds were administered once daily. The tumor sizes were measured on day 5, day 8, day 12, day 14 and day 19 after the injection.

The mark [10] stands for this setting: 72 h, MEAN over AML patients, read-out: In Vitro Percent Inhibition of Viability, MEAN.
[11] abbreviates: 72 h, patient ID 4, FAB AML2, read-out: In Vitro Percent Inhibition of Viability.
The mark [12] stands for this setting: 72 h, patient ID 14, FAB AML5, read-out: In Vitro Percent Inhibition of Viability.
Where [13] appears, read: AML1, 72 h, patient ID 1, FAB AML1, read-out: In Vitro Percent Inhibition of Viability.

As to `OCCOCCN1CCN(C(c2ccccc2)c2ccc(Cl)cc2)CC1` (stereo not shown) [hydroxyzine, hydroxyzine dihydrochloride], the “growth / resistance of LoVo cells” value in data set [1] (dihydrochloride) was “unaffected”; in [1] (listed as A, dihydrochloride), “totally resistant”. Further, the “PARP cleavage (induction of apoptosis)” value in data set [2] was “cleave PARP”. Also, the cytotoxicity at 100 µM in data set [3] (setting [10]) was 55%; in [3] (setting [11]), 44%; in data set [3] (setting [12]), 45%; in data set [3] (setting [13]) it was 77%. The cytotoxicity at 10 µM amounted to 12% in data set [3] (setting [10]), 9% in [3] (setting [11]), 18% in [3] (setting [12]) and 10% in [3] (setting [13]). The cytotoxic activity result in [4] is given as “little cytotoxic activity”. Further, in [4], the cytotoxicity result is “very good cytotoxicity”. Besides, in data set [5], the “expression of TCTP” value is reported as “inhibit the expression of TCTP”. Further, in data set [6], the surviving cell counts entry was “substantial”.

As to `CC(CN1c2ccccc2Sc2ccccc21)N(C)C` (stereo not shown) [promethazine], the “tumor growth compared to the negative control” value in data set [7] is on record as “decrease in tumor growth”. Also, the “growth / resistance of LoVo cells” value in data set [1] is recorded as “unaffected”. In addition, in [1] (listed as C), the “growth / resistance of LoVo cells” value is on record as “totally resistant”. Moreover, the tumor volume entry in data set [8] is “The same is also true for certain animals”. Further, in data set [9], the “mice that developed a tumor” value was “one out of six”. The “PARP cleavage (induction of apoptosis)” value in data set [2] is “cleave PARP”. Further, in [4], the cytotoxic activity entry is given as “little cytotoxic activity” and the cytotoxicity result was “very good cytotoxicity”. For the same compound, the “expression of TCTP” value in [5] is listed as “inhibit the expression of TCTP”. The surviving cell counts entry in [6] was “substantial”.

The values above are taken from US20040072824A1, “Methods and compositions for the treatment of cancer” (priority 2001, published 2004).
